PubChem BioAssay (NCI)
Several values for one entry are separate records, joined by “and”; a condition that tells them apart may be missing. Identical values can stand only once.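 Interpolation was linear, between the two tested concentrations surrounding the appropriate level; five concentrations were tested over 48 hours in 96-well plates. GI50 marks 50% less growth. At the TGI there is no net growth.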

Assays:
Assay in all cases: NCI anticancer screen, dose series, 48 h
A498 renal = system: A498 renal
CAKI-1 renal = system: CAKI-1 renal
HL-60(TB) leukemia = system: HL-60(TB) leukemia
HOP-62 NSCLC = system: HOP-62 NSCLC
HOP-92 NSCLC = system: HOP-92 NSCLC
MDA-MB-435 = system: MDA-MB-435
T-47D breast = system: T-47D breast
UACC-257 melanoma = system: UACC-257 melanoma
UACC-62 melanoma = system: UACC-62 melanoma
NCI/ADR-RES ovarian = system: NCI/ADR-RES ovarian

| Structure (SMILES) | TGI (A498 renal) | TGI (CAKI-1 renal) | TGI (HL-60(TB) leukemia) | TGI (HOP-62 NSCLC) | TGI (HOP-92 NSCLC) | TGI (MDA-MB-435) [µM] | TGI (T-47D breast) [µM] | TGI (UACC-257 melanoma) | TGI (UACC-62 melanoma) | GI50 (HOP-62 NSCLC) [µM] | GI50 (UACC-257 melanoma) [µM] | GI50 (UACC-62 melanoma) [µM] | GI50 (A498 renal) [µM] | GI50 (HL-60(TB) leukemia) [µM] | GI50 (HOP-92 NSCLC) [µM] | GI50 (NCI/ADR-RES ovarian) | TGI (NCI/ADR-RES ovarian) | GI50 (CAKI-1 renal) [µM] | GI50 (T-47D breast) [µM] | GI50 (MDA-MB-435) [µM] |
| --- | --- | --- | --- | --- | --- | --- | --- | --- | --- | --- | --- | --- | --- | --- | --- | --- | --- | --- | --- | --- |
| C=C(C)[C@@H]1CC[C@@H]2C(=CC[C@]3(C)C([C@H](C)CC/C=C(/C)C(=O)O)CC[C@@]23C)[C@@]1(C)CCC(=O)O (stereo partly specified) | 74.4 µM | 68.4 µM | 72.5 µM | > 100 µM | 43 µM | 89.7 | > 100 | 54.2 µM | 39.4 µM |  |  |  |  |  |  |  |  |  |  |  |
| CCOc1c(Cc2ccccc2)c(=O)n2c3ccccc3n3c(=O)n(C)c(=O)c1c23 | > 100 µM | > 100 µM |  | > 100 µM | > 100 µM |  |  | > 100 µM | > 100 µM |  |  |  |  |  |  |  |  |  |  |  |
| O=C1/C(=C/c2ccccc2)CN(C(=O)Oc2ccccc2)C/C1=C\c1ccccc1 | > 100 µM |  | 5.78 µM | 39.7 µM |  |  |  | > 100 µM | > 100 µM |  |  |  |  |  |  |  |  |  |  |  |
| CCc1cc2c(c3[nH]ccc13)[C@@H](C)C[C@H]2C | 30.2 µM | 34.7 µM | 48.8 µM |  | 32.6 µM |  |  | 39.9 µM | 32 µM |  |  |  |  |  |  |  |  |  |  |  |
| CC(C)N(C(=O)C12C3C4C5C3C1(C(=O)N(C(C)C)C(C)C)C5C42)C(C)C (stereo unspecified) | > 100 µM | > 100 µM | > 55.6 µM | > 100 µM | > 100 µM |  |  | > 100 µM | > 100 µM |  |  |  |  |  |  |  |  |  |  |  |
| CC(=O)[O-].CC(=O)[O-].CC(=O)[O-].CC(=O)[O-].CO.CO.CO.[Rh+2].[Rh+2].c1ccc(-c2ccccn2)nc1 |  |  |  | > 100 µM |  |  |  | > 100 µM | > 100 µM | > 100 | > 100 | > 100 |  |  |  |  |  |  |  |  |
| CC(C)S(=O)(=O)ON1C(=O)c2ccc([N+](=O)[O-])cc2C1=O | > 100 µM | > 100 µM | > 100 µM | > 100 µM | > 100 µM |  |  | > 100 µM | > 100 µM |  |  |  |  |  |  |  |  |  |  |  |
| CCCCCCCC(=O)O[C@H]1[C@H]2[C@@H](CC1(C)C)C(=O)[C@]13O[C@H]1C(=O)[C@]1(CO1)[C@]23C | 36.1 µM and 22.8 µM | 5.82 µM and 5.58 µM | 4.57 µM and 2.04 µM | 38.9 µM and 40.2 µM | 6.03 µM and 4.81 µM | 75 |  | 10.8 µM and 7.04 µM | 20.8 µM and 7.29 µM | 19.5 | 5.03 | 6.47 | 21.6 | 0.381 | 2.83 | 2.39 µM and 1.72 µM | 5.26 µM and 9.64 µM |  |  |  |
| COC(=O)C([O][Ge]([CH3])([CH3])[CH3])c1ccccc1 (stereo unspecified) | > 100 µM | > 100 µM | > 100 µM | > 100 µM | > 100 µM |  |  | > 100 µM | > 100 µM | > 100 | > 100 | > 100 | > 100 | 90.8 | > 100 |  |  | > 100 |  |  |
| Cc1cccc(Cc2cnc(NC(=O)/C=C/c3ccco3)s2)c1 | 3.93 µM | > 100 µM | 0.0837 µM | > 100 µM | > 100 µM |  | > 100 | > 100 µM | > 100 µM | 0.0535 | > 100 | 0.0542 | 0.199 | 0.0281 | 8.5 | 0.0364 µM | > 100 µM | 0.0459 | 0.033 |  |
| CCCN(CCC)c1c([N+](=O)[O-])cc(C(N)=O)cc1[N+](=O)[O-] |  | > 100 µM | 87.4 µM |  |  |  |  | > 100 µM |  |  |  |  |  |  |  |  |  |  |  |  |
| CC1(C)CC(=O)C=C(NC(=O)c2ccccc2)C1 | > 100 µM | > 100 µM | > 100 µM | > 100 µM | > 100 µM |  |  | > 100 µM | > 100 µM |  |  |  |  |  |  |  |  |  |  |  |
| CCN(CC)Cc1cc(Nc2c3ccc(Cl)cc3nc3c(C)cccc23)ccc1O | 3 µM | 2.92 µM | 5.24 µM | 3.26 µM |  | 3.14 | 4.08 | 3.62 µM | 3.64 µM | 1.65 | 1.99 | 1.96 | 1.05 | 2.42 |  | 1.08 µM | 3.02 µM | 1.53 | 2.09 | 1.75 |
| CCC[CH2][Sn]1([CH2]CCC)[O]N=Cc2ccccc2[O]1 | 2.8 µM | 1.08 µM | 0.726 µM | 3.12 µM | 2.49 µM |  |  | 2.74 µM | 1.7 µM | 1.62 | 1.31 | 0.413 | 1.43 | 0.183 | 1.22 |  |  | 0.322 |  |  |
| Cn1cc(C2=C(c3cccc(Cl)c3)C(=O)NC2=O)c2ccccc21 | > 25 µM | > 25 µM | > 25 µM | > 25 µM |  | > 25 | > 25 | 17.7 µM | 12.7 µM | > 25 | 5.46 | 5.19 | 8.25 | > 25 |  | > 25 µM | > 25 µM | > 17 | 20 | 12.6 |
| Clc1cc(-c2csc(Cl)c2)cs1 | > 100 µM | > 100 µM | > 100 µM |  | > 100 µM | > 100 |  | > 100 µM | > 100 µM |  |  |  |  |  |  |  | > 100 µM |  |  |  |
| c1ccc2c(Nc3ccc4c(c3)OCO4)c3ccoc3nc2c1 | 29.1 µM | 33.3 µM |  | 32.3 µM | 43.3 µM | 14.4 | > 100 |  | 33.1 µM | 15.4 |  | 13.9 | 14.4 |  | 12.7 | 7.66 µM | 75.5 µM | 12.3 | 29.3 | 3.97 |
| O=C1CCC(=O)C(C(=O)CCC(=O)Nc2ccc(Cl)cc2)C1 (stereo unspecified) | > 100 µM | > 100 µM | > 100 µM |  | > 100 µM |  |  | > 100 µM | > 100 µM |  |  |  |  |  |  |  |  |  |  |  |
| O=C1NC(=Nc2ccccc2Cl)SC1C(=O)Nc1ccc([N+](=O)[O-])cc1[N+](=O)[O-] (stereo unspecified) | > 100 µM | > 100 µM | > 100 µM | > 100 µM | > 100 µM |  |  | > 100 µM | > 100 µM |  |  |  |  |  |  |  |  |  |  |  |
